Reference: paper PMC9080489, “Synthesis and biological evaluation of 2-aryl-benzimidazole derivatives of dehydroabietic acid as novel tubulin polymerization inhibitors” (RSC Advances, 2018)

Columns and labels:
Porcine brain tubulin = target: T1, Porcine brain tubulin (Sus scrofa, UniProt P02550+P02554); test: In vitro tubulin polymerization inhibition assay (OD340); type: biochemical; conditions: 37 °C, 1 h, versus blank control
T1 construct: purchased Cytoskeleton, Inc. BK004P; host or cells: porcine brain tissue
T1 sequence (P02554 whole entry): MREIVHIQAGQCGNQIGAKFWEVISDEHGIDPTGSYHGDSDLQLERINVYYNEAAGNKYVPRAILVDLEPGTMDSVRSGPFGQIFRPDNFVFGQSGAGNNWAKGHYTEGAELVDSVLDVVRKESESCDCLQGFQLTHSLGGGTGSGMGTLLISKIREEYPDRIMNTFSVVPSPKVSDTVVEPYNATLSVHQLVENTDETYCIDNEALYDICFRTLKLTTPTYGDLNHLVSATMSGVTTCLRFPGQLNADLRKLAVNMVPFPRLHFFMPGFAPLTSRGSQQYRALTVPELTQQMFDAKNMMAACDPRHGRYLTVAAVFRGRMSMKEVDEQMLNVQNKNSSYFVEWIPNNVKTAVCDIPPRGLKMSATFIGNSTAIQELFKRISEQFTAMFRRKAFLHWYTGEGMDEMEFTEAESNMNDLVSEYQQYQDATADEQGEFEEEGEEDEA
T1 sequence (P02550 whole entry): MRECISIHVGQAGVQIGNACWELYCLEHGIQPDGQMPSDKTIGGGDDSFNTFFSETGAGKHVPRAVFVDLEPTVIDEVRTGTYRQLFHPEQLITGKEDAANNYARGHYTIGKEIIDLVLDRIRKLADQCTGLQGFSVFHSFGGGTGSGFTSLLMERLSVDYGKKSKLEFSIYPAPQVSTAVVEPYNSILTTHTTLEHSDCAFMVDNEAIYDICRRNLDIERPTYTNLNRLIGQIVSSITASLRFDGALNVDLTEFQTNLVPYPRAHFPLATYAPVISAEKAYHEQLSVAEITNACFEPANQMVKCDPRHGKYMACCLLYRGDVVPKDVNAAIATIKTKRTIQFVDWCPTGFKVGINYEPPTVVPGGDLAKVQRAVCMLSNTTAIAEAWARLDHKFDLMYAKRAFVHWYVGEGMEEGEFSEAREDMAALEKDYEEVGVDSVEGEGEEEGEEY
Procedure: The in vitro tubulin polymerization inhibition assay was carried out by using the Tubulin Polymerization Assay Kit (Cytoskeleton, Inc., USA) according to the protocol in the manual. Porcine brain tubulin was incubated with compound 6j at concentrations of 5 and 10 μM. The positive control colchicine and negative control taxol were co-assayed at the concentration of 10 μM, and G-PEM buffer was used as the blank control.
The tubulin polymerization assay was accomplished using a commercial assay kit (cat. #BK004P) purchased from Cytoskeleton, Inc. (Danvers, MA, USA). Tubulin isolated from porcine brain tissue was used in this tubulin polymerization assay kit. Tubulin polymerizations are followed by an increase in optical density at 340 nm (OD340) over a 60 min period at 37 °C due to the light scattered by microtubule polymer. At first, tubulin (4 mg) was disovled in 1 mL of G-PEM buffer containing 80 mM piperazine-N,N′-bis(2-ethanesulfonic acid) sequisodium salt (PIPES, pH 6.9), 2.0 mM MgCl2, 0.5 mM EGTA and 1 mM GTP to prepare tubulin solution. Subsequently, 10 μL of 10 × stock solutions of the tested compounds at different concentrations were added to a prewarmed 96-well plate and incubated at 37 °C for 2 min, then 90 μL of tubulin solution was also added into each well to initiate the reaction. The optical intensity (OD340) of each well was recorded every 60 s for 60 min (Cytation 3 Cell Imaging Multi-Mode Reader, BioTek Instruments, Inc., USA). Colchicine and taxol were co-assayed as the positive control and negative control, respectively. G-PEM buffer was used as the blank control.

SMMC-7721 cells [1] = test: ROS generation assay (DCFH-DA); type: cell-based, human; conditions: 0.2, 0.5, 1 and 2 μM, 24 h
Procedure: Reactive oxygen species (ROS) are highly harmful elements to cells as they exert oxidative stress and finally cause cellular damage. Excessive ROS generation renders cells vulnerable to apoptosis.[39] To determine whether compound 6j triggers ROS generation in SMMC-7721 cells to induce apoptosis, the cells were treated with different concentrations (0, 0.2, 0.5, 1 and 2 μM) of compound 6j for 24 h, and the ROS generation was evaluated using the fluorescent probe 2,7-dichlorofluorescein diacetate (DCF-DA) by fluorescence microscopy. […] This phenomenon implied that the increment of ROS might play an important role as an early mediator in compound 6j-induced apoptosis.
ROS generation assay was performed by using the reactive oxygen species assay kit (Beyotime Biotech., China). Intracellular ROS generation was tested through dichlorodihydro fluorescein diacetate (DCFH-DA) assay. DCFH-DA is taken up by SMMC-7721 cells, and then activated by esterase-mediated cleavage of acetate to form dichlorodihydro fluorescein (DCFH), which is trapped in the cells. DCFH is converted to fluorescein DCF in the presence of ROS. SMMC-7721 cells were seeded in six-well plates and incubated with different concentrations of compound 6j for 24 h. […] Immediately after light exposure, cell images were acquired through an inverted fluorescence microscope (Olympus 1X71 Inverted System Microscope, Olympus, Japan).

SMMC-7721 cells [2] = test: Annexin V-FITC/PI dual staining assay (apoptosis); type: cell-based, human; conditions: highest concentration 2.0 μM, 24 h; control 10.12%
Procedure: In order to investigate whether compound 6j could induce cell apoptosis, SMMC-7721 cells treated with different concentrations of compound 6j were subjected to Annexin V-FITC/propidium iodide (PI) dual staining followed by flow cytometry assay.
Apoptosis was discriminated with the Annexin V-FITC/PI dual staining assay. SMMC-7721 cells were seeded at 1 × 10^5 cells per well in 10% fetal calf serum (FBS)-DMEM into six-well plates and treated with or without compound 6j for 24 h. The cells were detached with 0.25% trypsin, washed twice with ice-cold PBS and then resuspended in 500 μL of 1× binding buffer (0.1 M Hepes/NaOH (pH 7.4), 1.4 M NaCl, 25 mM CaCl2). The solution was transferred into 5 mL culture tubes, and 5 μL of Annexin V-FITC (BD, Pharmingen) and 5 μL of PI were added to each tube. The cells were gently vortexed, and incubated for 30 min at 25 °C in the dark. The analysis was performed on a flow cytometry (Becton-Dickinson FACSCalibur, New York, USA).

SMMC-7721 cells [3] = test: Wound healing assay (cell migration); type: cell-based, human; conditions: 0.2 and 0.5 μM, up to 48 h
From the text: Metastasis is a multistep process involving cancer cell motility and invasion which represents a key difficulty for cancer therapy. Thus, the inhibition of metastasis is vital for efficient cancer treatment. Microtubule plays an important role in cell motility and migration. As compound 6j inhibits tubulin polymerization, the capacity of migration inhibition was also investigated through wound healing assay.[45] In this assay, standard scratches (wounds) were made in confluent monolayers of SMMC-7721 cells and incubated with different concentrations (0, 0.1, 0.2 and 0.5 μM) of compound 6j. The migration of SMMC-7721 cells was recorded by microscopic observations at 0, 24 and 48 h.
SMMC-7721 cells (5 × 10^5 cells per well) were grown in a 12-well plate for 24 h. Scratches were made in confluent monolayers using 200 μL pipette tip. Then, wounds were washed twice with PBS to remove non-adherent cell debris. The media containing different concentrations (0, 0.1, 0.2 and 0.5 μM) of compound 6j were added to the corresponding wells. Cells which migrated across the wound area were photographed under the phase contrast microscope (Olympus 1X71 Inverted System Microscope, Olympus, Japan) after 24 and 48 h treatment.

- effect on tubulin polymerization speed and final absorbance (OD340) (Porcine brain tubulin; 10 μM): stronger than colchicine
- melting point: 179 to 181 °C
SMILES: COC(=O)[C@]1(C)CCC[C@]2(C)c3cc(Br)c4nc(-c5ccc6[nH]ccc6c5)[nH]c4c3CCC12 (stereo partly drawn) [Compound 6j, Methyl 2′-(1H-indol-5-yl)-12-bromo-13,14-imidazolyl-deisopropyl-dehydroabietate]
- effect on tubulin polymerization speed and final absorbance (OD340) (Porcine brain tubulin; 5 and 10 μM): substantially decreased the polymerization speed and the final absorbance in a dose-dependent manner
- ROS generation (DCF green fluorescence) (SMMC-7721 cells [1]): significantly induced ROS generation
- percentage of early and late apoptotic cells (SMMC-7721 cells [2]): 80.08%
- wound healing (cell migration) (SMMC-7721 cells [3]): healing was strongly suppressed
